Measurements from patent publication US12331136B2, “Anti-aging sturgeon roe tetrapeptide and preparation method and application thereof” (Shenzhen Porshealth Bioengineering Co., Ltd., priority 2023, dated 2025).
Residues, ends and D or L forms follow the SMILES beside them.

Assay: Absorption experiment of NLPL in rats (blood LC-MS/MS)
Assay type: in vivo
Details: SD rats, intragastric 50 mg/kg bw
Method: In this research, SD rats are used and divided into three groups: a normal group and sturgeon NLPL (SEQ ID NO: 9) groups (50 mg/kg bw of daily dosage). At 12 h before the experiment, the rats are fasted but allowed to drink water. At 15 min, 45 min, 90 min, 180 min and 360 min after intragastric administration, all rats are anesthetized with 3% pentobarbital sodium, subjected to blood sampling through the abdominal aorta, and then euthanized. The polypeptide samples are prepared by solid phase synthesis and desalted.
• (1) The required samples are taken out, thawed, and mixed uniformly by vortex. • (2) 40 μL of sample is taken from the mixed sample, added with 120 μL of methanol, then shaken for 10 min, and centrifuged at low temperature for 10 min. • (3) 70 μL of supernatant is taken out from the centrifuged sample for subsequent determination. 4.2.2.2 Preparation of Standard Solution
Chromatographic separation is performed by using Waters ACQUITY UPLC I-CLASS ultra-high performance liquid chromatography equipment. Specific conditions are as follows: chromatographic column: Waters UPLC HSS T3 (1.8 μm, 2.1 mm×100 mm)—mobile phase: phase A (water, 0.1% formic acid), phase B (methanol)—flow rate: 0.3 mL/min-injection volume: 5.0 μL-column temperature: 40° C.—single sample analysis time: 8 min.
Mass spectrometric detection is performed by using Waters XEVO TQ-XS series four-pole mass spectrometer. Specific conditions are as follows: positive ion source voltage: 3.0 kV-cone well voltage: 30 V-solvent removal temperature: 500° C.—solvent removal gas flow rate: 1000 L/h-cone well gas flow rate: 150 L/h.
Data are expressed in the form of Mean±SD. Data processing and significance analysis are performed by Graphpad. P<0.05 and P<0.01 indicate significant difference and extremely significant difference in data. The target peak area in the polypeptide metabolism data is calculated by using TargetLynx software, and an allowable error of retention time is 15 s. The calculation of concentration is based on a standard curve method to obtain quantitative results.

In the case of `CC(C)C[C@H](NC(=O)[C@@H]1CCCN1C(=O)[C@H](CC(C)C)NC(=O)[C@@H](N)CC(N)=O)C(=O)O` [NLPL] (H-NLPL-OH; N-terminus and C-terminus assumed), the “time at which NLPL content in the blood reaches a maximum” value is reported as at most 45 min, the AUC (rat, blood, po, during the measurement time (to 360 min)) is reported as 7.14 ng·h/mL and the Cmax (rat, blood, po, read-out: maximum NLPL content in the blood) is reported as 1.65 ± 1.75 ng/mL.
